Results reported in patent US5639745A, “Fused-bicyclic lactams as interleukin-1β converting enzyme inhibitors” (Sanofi, priority 1995, dated 1997).

Tests used:
ICE (IL-1β protease) = molecular target: T1, ICE (IL-1β protease) (Homo sapiens, UniProt P29466); assay: modified in vitro enzyme assay, reversible Ki* for ICE (Succinyl-Tyr-Val-Ala-Asp-amino methylcoumarin substrate); type: biochemical; conditions: aldehydes
T1 sequence (P29466 120-297 limits assumed): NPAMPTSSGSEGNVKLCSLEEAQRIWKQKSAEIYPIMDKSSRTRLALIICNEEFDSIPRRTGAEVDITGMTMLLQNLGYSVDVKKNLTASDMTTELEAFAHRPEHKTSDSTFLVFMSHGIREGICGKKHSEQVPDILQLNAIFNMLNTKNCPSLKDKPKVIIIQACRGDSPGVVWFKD
T1 sequence (P29466 317-404 limits assumed): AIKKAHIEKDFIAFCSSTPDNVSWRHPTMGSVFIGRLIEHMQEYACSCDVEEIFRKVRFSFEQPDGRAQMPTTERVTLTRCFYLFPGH
Experimental: Second order rates of inactivation were obtained by using the enzyme assay described in Dolle, R. E.; et al., J. Med Chem. (1994), 37, 563. […] In the case of these reversible inhibitors, the in vitro assay was modified to obtain the reversible Ki * as follows:
Ki * values for reversible inhibitors were determined by preincubating ICE with various concentrations of inhibitor in 10 mM HEPES (a common laboratory buffer; pH 7.5), 25% glycerol, 1 mM dithiothreitol for 30 minutes at 37 ° C. in a polystyrene 96-well plate. Remaining ICE activity was measured by adding 10 uM Succinyl-Tyrosine-Valine-Alanine-Aspartic acid-amino methylcoumarin (Bachem Bioscience, Inc.) and monitoring the increase in fluorescence at 37° C. using a Fluoroskan II fluorescence plate reader. The Ki * was calculated from a plat of 1/v versus I as described previously (Morrison, J. F. and Cleland, W. W. (1983) Biochemistry 22, 5507-5513.

[1] = test system: mature IL-1β release from human monocytes; assay: human monocyte pulse chase assay, inhibition of release of mature IL-1β (called In Vivo Assay); type: cell-based; conditions: human monocytes stimulated with fixed S. aureus
Experimental: In vivo inhibition (IC50) was determined as follows:
Human monocytes were isolated from heparinized leukopheresis units obtained through Biological Specialty Corporation (Lansdale, Pa.). Monocytes were purified by Ficoll-Hupaque (Pharmacia Fine Chemicals, Piscataway, N.J.) gradient centrifugation and more than 95% pure monocyte populations obtained by centrifugal elutriation. The assay was performed on duplicate samples of freshly isolated human monocytes, cultured in suspension at 37° C. and rotated gently in conical bottom polypropylene tubes (Sardstedt Inc., Princeton, N.J.). Human monocytes at a concentration of 5×10^6 cells/mL were resuspended in 1 mL of RPMI 1640 (a common tissue buffer from M. A. Bioproducts, Walkersville, Md.) containing 1% fetal calf serum (FCS) (HyClone, Logan, Utah) and 50 μg/mL gentamycin (Gibco, Grand Island, N.Y.). The cells were treated either with a compound of the invention (i.e. test compound) or with a non-inhibitor (control compound, typically 0.03% DMSO) for 15 minutes and then activated with 0.01% fixed Staphylococcus aureus (The Enzyme Center, Malden, Mass.) for 1 hour. The cells were then centrifuged and resuspended in 1 mL of cysteine, methionine-free RPMI media containing 1% dialyzed FCS (Hyclone). The cells were pretreated with a test compound or control compound for 15 minutes after which 0.01% fixed S. aureus plus 100 μCi Tran 35-S label (ICN, Irvine, Calif.) was added and the cells incubated at 37° C. for 1 hour. After incubation, cells were centrifuged, washed once in phosphate buffer saline and resuspended in 1 mL RPMI containing 1% fetal calf serum. The cells were again pretreated with a test or control compound for 15 minutes and then 0.01% S. aureus for 2 hours. At the end of the incubation, cells were centrifuged and supernates saved for immunoprecipitation. Cells were washed once in phosphate buffer saline and then lysed in RIPA, a continuous cell media buffer containing 2 mM phenylmethylsulfonyl fluoride, 10 mM iodoacetate, 1 μg/mL pepstatin A, 1 μg/mL leupeptin and 0.5 TIU aprotinin.
For the immunoprecipitations, an equal volume of 1% dry milk in RIPA buffer plus 50 μL of resuspended protein A sepharose CL-4B (Pharmacia, Piscataway, N.Y.) was added to supernates and 1 mL of 4% dry milk containing protein A sepharose CL-4B to cell lysates and samples rotated for 30 minutes at 4° C. Beads were then centrifuged down, samples transferred to fresh tubes and incubated overnight with 40 μg rabbit anti-human IL-1β polyclonal antibody (Genzyme, Cambridge, Mass.). The IL-1β proteins were then precipitated with 70 μL protein A sepharose, resuspended in 60 μL SDS sample buffer and run on 15% SGD-PAGE gels. Autoradiography was performed on dried gels and the amount of radioactivity (counts per minute, cpm) quantitated using a Betascope 603 analyzer.
In the monocyte pulse chase assay, each test parameter was run in duplicate. Data was collected from the Beta Scope using a personal computer, then transferred to the VAX system for calculation of mean cpm and standard deviation of the mean. When test compounds were evaluated, the percent inhibition of release of mature IL-1β was calculated as follows:
100×[1-(cells treated with stimuli+test compound-unstimulated cells)/(cells treated with stimuli+control compound-unstimulated cells)]
These % inhibition values were then used to calculate IC50 value for each compound. Since the human monocyte pulse chase assay uses primary cells from different donors, each test compound was run in 2-3 separate experiments, using monocytes from 2-3 different donors.

IL-1 receptor [2] = conditions: colitis model; cited from earlier work
IL-1 receptor [3] = conditions: PG-APS arthritis, rats; cited from earlier work
IL-1 receptor [4] = conditions: open-label human trial, subcutaneous; cited from earlier work
[5] = test system: chronic myelogenous leukemia cells; conditions: cells removed from chronic myelogenous leukemia patients; cited from earlier work
[6] = test system: acute myelogenous leukemia cells; conditions: cited from earlier work

Compound	mode of inhibition / binding kinetics (ICE (IL-1β protease))	IC50 [1] [µM]	tissue necrosis and number of inflammatory cells in the colon (IL-1 receptor [2])	joint swelling (IL-1 receptor [3])	efficacy in Rheumatoid Arthritis (IL-1 receptor [4])	colony growth inhibition [5]	blast proliferation inhibition [6]
O=C[C@H](CC(=O)O)NC(=O)[C@@H]1CCCN2C(=O)CC[C@H](NC(=O)c3ccccc3)C(=O)N12 [Example 21]	reversible inhibitors and display slow binding kinetics	< 10	–	–	–	–	–
IL-1ra: IL-1 receptor antagonist	–	–	reduced tissue necrosis and the number of inflammatory cells in the colon	supresses joint swelling	shows efficacy	inhibit colony growth	Inhibition of Acute Myelogenous Leukemia Blast Proliferation
O=C[C@H](CC(=O)O)NC(=O)[C@@H]1CCCN2C(=O)CC[C@H](NC(=O)OCc3ccccc3)C(=O)N12 [Example 2]	reversible inhibitors and display slow binding kinetics	< 10	–	–	–	–	–
O=C[C@H](CC(=O)O)NC(=O)[C@@H]1CCCN2C(=O)CC[C@H](NC(=O)c3ccc(OCC(=O)O)cc3)C(=O)N12 [Example 22]	reversible inhibitors and display slow binding kinetics	< 10	–	–	–	–	–
